Laboratory results reported in patent publication US8802700B2 (Vertex Pharmaceuticals Incorporated, priority 2010, dated 2014).
pEC50: −log10 of the molar value.

These molecules were tested against T1, ΔF508-CFTR (Homo sapiens, UniProt P13569, DEL508-508) (assay: Membrane potential optical assay (FRET voltage-sensor dyes, VIPR), identification of potentiator compounds). Conditions: Table 3; assay not given.
T1 construct: expressed in transfected cells
Assay type: cell-based
Description: The optical membrane potential assay utilized voltage-sensitive FRET sensors described by Gonzalez and Tsien (See Gonzalez, J. E. and R. Y. Tsien (1995) “Voltage sensing by fluorescence resonance energy transfer in single cells” Biophys J 69(4): 1272-80, and Gonzalez, J. E. and R. Y. Tsien (1997) “Improved indicators of cell membrane potential that use fluorescence resonance energy transfer” Chem Biol 4(4): 269-77) in combination with instrumentation for measuring fluorescence changes such as the Voltage/Ion Probe Reader (VIPR) (See […]. Oades, et al. (1999) “Cell-based assays and instrumentation for screening ion-channel targets” Drug Discov Today 4(9): 431-439). These voltage sensitive assays are based on the change in fluorescence resonant energy transfer (FRET) between the membrane-soluble, voltage-sensitive dye, DiSBAC2(3), and a fluorescent phospholipid, CC2-DMPE, which is attached to the outer leaflet of the plasma membrane and acts as a FRET donor. Changes in membrane potential (Vm) cause the negatively charged DiSBAC2(3) to redistribute across the plasma membrane and the amount of energy transfer from CC2-DMPE changes accordingly. The changes in fluorescence emission were monitored using VIPRTM II, which is an integrated liquid handler and fluorescent detector designed to conduct cell-based screens in 96- or 384-well microtiter plates. To identify potentiators of ΔF508-CFTR, a double-addition HTS assay format was developed. During the first addition, a Cl^--free medium with or without test compound was added to each well. […] (in mM) NaCl 160, KCl 4.5, CaCl2 2, MgCl2 1, HEPES 10, pH 7.4 with NaOH. • Chloride-free bath solution: Chloride salts in Bath Solution #1 are substituted with gluconate salts. • CC2-DMPE: Prepared as a 10 mM stock solution in DMSO and stored at -20° C. • DiSBAC2(3): Prepared as a 10 mM stock in DMSO and stored at -20° C. NIH3T3 mouse fibroblasts stably expressing ΔF508-CFTR are used for optical measurements of membrane potential. […] For all optical assays, the cells were seeded at 30,000/well in 384-well matrigel-coated plates and cultured for 2 hrs at 37° C. before culturing at 27° C. for 24 hrs. for the potentiator assay.

T1 sequence (P13569 with tags, fused parts or gaps DEL508-508): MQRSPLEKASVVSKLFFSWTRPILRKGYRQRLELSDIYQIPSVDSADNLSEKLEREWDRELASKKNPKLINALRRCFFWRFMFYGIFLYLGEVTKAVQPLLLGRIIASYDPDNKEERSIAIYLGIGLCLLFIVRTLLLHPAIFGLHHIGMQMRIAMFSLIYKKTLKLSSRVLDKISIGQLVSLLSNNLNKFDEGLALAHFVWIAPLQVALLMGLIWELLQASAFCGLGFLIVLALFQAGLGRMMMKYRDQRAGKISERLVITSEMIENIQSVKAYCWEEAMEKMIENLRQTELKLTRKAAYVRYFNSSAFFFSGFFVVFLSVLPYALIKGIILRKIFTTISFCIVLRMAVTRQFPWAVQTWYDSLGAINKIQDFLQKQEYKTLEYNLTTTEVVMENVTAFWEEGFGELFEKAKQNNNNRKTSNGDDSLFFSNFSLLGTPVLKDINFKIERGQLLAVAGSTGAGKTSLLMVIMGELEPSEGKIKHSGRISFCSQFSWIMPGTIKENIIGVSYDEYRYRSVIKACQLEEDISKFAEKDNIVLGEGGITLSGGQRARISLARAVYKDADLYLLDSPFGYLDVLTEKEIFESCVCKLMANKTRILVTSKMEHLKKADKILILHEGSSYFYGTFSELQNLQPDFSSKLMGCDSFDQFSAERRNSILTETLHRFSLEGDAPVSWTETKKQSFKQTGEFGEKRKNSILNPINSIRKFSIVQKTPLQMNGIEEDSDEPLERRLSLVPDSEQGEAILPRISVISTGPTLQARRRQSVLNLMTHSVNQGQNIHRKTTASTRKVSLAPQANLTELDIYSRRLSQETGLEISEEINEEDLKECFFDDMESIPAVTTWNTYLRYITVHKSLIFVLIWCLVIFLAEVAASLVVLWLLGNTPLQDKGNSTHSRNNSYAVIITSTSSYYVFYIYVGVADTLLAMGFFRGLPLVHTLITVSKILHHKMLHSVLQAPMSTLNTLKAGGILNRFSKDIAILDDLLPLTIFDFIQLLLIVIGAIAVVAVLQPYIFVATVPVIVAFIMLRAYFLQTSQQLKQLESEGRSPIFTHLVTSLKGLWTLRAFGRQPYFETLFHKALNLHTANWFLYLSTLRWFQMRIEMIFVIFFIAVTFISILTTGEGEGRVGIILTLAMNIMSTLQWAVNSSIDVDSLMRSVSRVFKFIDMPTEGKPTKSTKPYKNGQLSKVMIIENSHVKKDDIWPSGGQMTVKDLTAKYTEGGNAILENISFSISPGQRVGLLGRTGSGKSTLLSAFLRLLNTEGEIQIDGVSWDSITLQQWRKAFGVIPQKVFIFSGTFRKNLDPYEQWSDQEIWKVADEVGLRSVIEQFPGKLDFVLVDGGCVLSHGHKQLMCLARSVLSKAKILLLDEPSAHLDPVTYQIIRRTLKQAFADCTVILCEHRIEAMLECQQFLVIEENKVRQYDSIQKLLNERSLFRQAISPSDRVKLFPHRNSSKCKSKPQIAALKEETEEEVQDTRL

`CC(C)(C)c1cc(C(C)(C)C)c(NC(=O)c2c[nH]c3ccc(C(F)(F)F)cc3c2=O)cc1O` [Compound 515, N-(5-hydroxy-2,4-ditert-butyl-phenyl)-4-oxo-6-(trifluoromethyl)-1H-quinoline-3-carboxamide] gave a pEC50 of 4.60 to 5.00.

Same assay, conditions: Table 3; assay not given; read-out: % Activity (% Efficacy, relative efficacy)

`C[C@H]1CCCN1c1ccc(NC(=O)c2c[nH]c3ccccc3c2=O)c(C(F)(F)F)c1` [Compound 618, (S)-N-(4-(2-methylpyrrolidin-1-yl)-2-(trifluoromethyl)phenyl)-4-oxo-1,4-dihydroquinoline-3-carboxamide] and `CC1(C)CCCN(c2ccc(NC(=O)c3c[nH]c4ccccc4c3=O)c(C(F)(F)F)c2)C1` [Compound 612, N-[4-(3,3-dimethyl-1-piperidyl)-2-(trifluoromethyl)phenyl]-4-oxo-1H-quinoline-3-carboxamide] fall in the same range of Emax: 25 to 100% for the first, 25 to 100% for the second.

`O=C(Nc1ccccc1N1CCCCC1)c1c[nH]c2ccccc2c1=O` [Compound 26, 4-oxo-N-[2-(1-piperidyl)phenyl]-1H-quinoline-3-carboxamide] and `N#CCc1ccccc1NC(=O)c1c[nH]c2ccccc2c1=O` [Compound 308, N-[2-(cyanomethyl)phenyl]-4-oxo-1H-quinoline-3-carboxamide] fall in the same range of Emax: 25 to 100% for the first, 25 to 100% for the second.

First: O=C(Nc1ccccc1-c1ccc(Oc2ccccc2)cc1)c1c[nH]c2ccccc2c1=O [Compound 410, 4-oxo-N-[2-(4-phenoxyphenyl)phenyl]-1H-quinoline-3-carboxamide]
Second: O=C(Nc1ccccc1-c1ccc(OC(F)(F)F)cc1)c1c[nH]c2ccccc2c1=O [Compound 388, 4-oxo-N-[2-[4-(trifluoromethoxy)phenyl]phenyl]-1H-quinoline-3-carboxamide]
The Emax of the first is higher: > 100% for the first, 25 to 100% for the second.

`Cc1cccc2[nH]cc(C(=O)Nc3ccc(N4CCC(C)C4)cc3C(F)(F)F)c(=O)c12` (stereo not shown) [Compound 546, 5-methyl-N-[4-(3-methylpyrrolidin-1-yl)-2-(trifluoromethyl)phenyl]-4-oxo-1H-quinoline-3-carboxamide] and `Cc1cccc2[nH]cc(C(=O)Nc3ccc(N4[C@@H](C)CC[C@@H]4C)cc3C(F)(F)F)c(=O)c12` [Compound 516, N-(4-((2S,5S)-2,5-dimethylpyrrolidin-1-yl)-2-(trifluoromethyl)phenyl)-5-methyl-4-oxo-1,4-dihydroquinoline-3-carboxamide] fall in the same range of Emax: 25 to 100% for the first, 25 to 100% for the second.

`O=C(Nc1cccc2ccccc12)c1c[nH]c2ccccc2c1=O` [Compound 350, N-(1-naphthyl)-4-oxo-1H-quinoline-3-carboxamide] and `Cc1cccc(-c2ccccc2NC(=O)c2c[nH]c3ccccc3c2=O)c1` [Compound 52, N-[2-(m-tolyl)phenyl]-4-oxo-1H-quinoline-3-carboxamide] fall in the same range of Emax: 25 to 100% for the first, 25 to 100% for the second.

`COc1ccc2[nH]cc(C(=O)Nc3cc(O)c(C(C)(C)C)cc3C(C)(C)C)c(=O)c2c1` [Compound 496, N-(5-hydroxy-2,4-ditert-butyl-phenyl)-6-methoxy-4-oxo-1H-quinoline-3-carboxamide] and `CC(C)(C)c1cc(C(C)(C)C)c(NC(=O)c2c[nH]c3ccc(Br)cc3c2=O)cc1O` [Compound 553, 6-bromo-N-(5-hydroxy-2,4-ditert-butyl-phenyl)-4-oxo-1H-quinoline-3-carboxamide] fall in the same range of Emax: 25 to 100% for the first, 25 to 100% for the second.

Going from `CNc1cccc2[nH]cc(C(=O)Nc3cc(O)c(C(C)(C)C)cc3C(C)(C)C)c(=O)c12` [Compound 542, N-(5-hydroxy-2,4-ditert-butyl-phenyl)-5-methylamino-4-oxo-1H-quinoline-3-carboxamide] to `CC(C)(C)c1cc(C(C)(C)C)c(NC(=O)c2c[nH]c3ccc(C(F)(F)F)cc3c2=O)cc1O` [Compound 515, N-(5-hydroxy-2,4-ditert-butyl-phenyl)-4-oxo-6-(trifluoromethyl)-1H-quinoline-3-carboxamide], the Emax falls from > 100% to < 25%.

`COc1ccc2[nH]cc(C(=O)Nc3ccc(N4CCC(C)(C)C4)cc3C(F)(F)F)c(=O)c2c1` [Compound 504, N-[4-(3,3-dimethylpyrrolidin-1-yl)-2-(trifluoromethyl)phenyl]-6-methoxy-4-oxo-1H-quinoline-3-carboxamide] and `CC(C)(C)C(=O)Nc1ccc(NC(=O)c2c[nH]c3ccccc3c2=O)c(C(F)(F)F)c1` [Compound 556, N-[4-(2,2-dimethylpropanoylamino)-2-(trifluoromethyl)phenyl]-4-oxo-1H-quinoline-3-carboxamide] fall in the same range of Emax: 25 to 100% for the first, 25 to 100% for the second.

First: O=C(Nc1cc(C(F)(F)F)ccc1C(F)(F)F)c1c[nH]c2ccccc2c1=O [Compound 630, N-[2,5-bis(trifluoromethyl)phenyl]-4-oxo-1H-quinoline-3-carboxamide]
Second: O=C(Nc1ccc(C(F)(F)F)cn1)c1c[nH]c2ccccc2c1=O [Compound 74, 4-oxo-N-[5-(trifluoromethyl)-2-pyridyl]-1H-quinoline-3-carboxamide]
The Emax of the first is higher: 25 to 100% for the first, < 25% for the second.

First: O=C(Nc1cc(Cl)cc(NS(=O)(=O)CCN2CCOCC2)c1)c1c[nH]c2ccccc2c1=O [Compound 46, N-[3-chloro-5-(2-morpholinoethylsulfonylamino)phenyl]-4-oxo-1H-quinoline-3-carboxamide]
Second: O=C(Nc1ccc(N2CCOCC2)nc1)c1c[nH]c2ccccc2c1=O [Compound 400, N-(6-morpholino-3-pyridyl)-4-oxo-1H-quinoline-3-carboxamide]
The Emax of the first is higher: 25 to 100% for the first, < 25% for the second.

First: O=C(Nc1ccccc1CCO)c1c[nH]c2ccccc2c1=O [Compound 40, N-[2-(2-hydroxyethyl)phenyl]-4-oxo-1H-quinoline-3-carboxamide]
Second: CCc1cc(Br)ccc1NC(=O)c1c[nH]c2ccccc2c1=O [Compound 263, N-(4-bromo-2-ethyl-phenyl)-4-oxo-1H-quinoline-3-carboxamide]
The Emax of the first is lower: < 25% for the first, 25 to 100% for the second.

`CC1(c2ccc(NC(=O)c3c[nH]c4ccc(F)cc4c3=O)cc2)COC1` [Compound 521, 6-fluoro-N-[4-(3-methyloxetan-3-yl)phenyl]-4-oxo-1H-quinoline-3-carboxamide] and `CC(C)(C)c1ccc(O)cc1NC(=O)c1c[nH]c2ccc(F)cc2c1=O` [Compound 665, 6-fluoro-N-(5-hydroxy-2-tert-butyl-phenyl)-4-oxo-1H-quinoline-3-carboxamide] fall in the same range of Emax: 25 to 100% for the first, 25 to 100% for the second.

Compared with `O=C(Nc1csc(C(F)(F)F)c1-c1ccccc1)c1c[nH]c2ccccc2c1=O` [Compound 708, 4-oxo-N-[4-phenyl-5-(trifluoromethyl)-3-thienyl]-1H-quinoline-3-carboxamide], `Cc1ccc(-c2ccccc2)cc1NC(=O)c1c[nH]c2ccccc2c1=O` [Compound 454, N-(2-methyl-5-phenyl-phenyl)-4-oxo-1H-quinoline-3-carboxamide] is lower in Emax: 25 to 100% for the first, < 25% for the second.

`CCc1cccc(NC(=O)c2c[nH]c3ccccc3c2=O)n1` [Compound 125, N-(6-ethyl-2-pyridyl)-4-oxo-1H-quinoline-3-carboxamide] and `CCc1ccc(NC)cc1NC(=O)c1c[nH]c2ccccc2c1=O` [Compound 157, N-(2-ethyl-5-methylamino-phenyl)-4-oxo-1H-quinoline-3-carboxamide] fall in the same range of Emax: 25 to 100% for the first, 25 to 100% for the second.

`CN(C)CCNC(=O)c1ccc(-c2cc3cc[nH]c3cc2NC(=O)c2c[nH]c3ccccc3c2=O)cc1` [Compound 347, N-[5-[4-(2-dimethylaminoethylcarbamoyl)phenyl]-1H-indol-6-yl]-4-oxo-1H-quinoline-3-carboxamide] and `CC(C)c1ccc(-c2cc3cc[nH]c3cc2NC(=O)c2c[nH]c3ccccc3c2=O)cc1` [Compound 342, N-[5-(4-isopropylphenyl)-1H-indol-6-yl]-4-oxo-1H-quinoline-3-carboxamide] fall in the same range of Emax: 25 to 100% for the first, 25 to 100% for the second.

Compared with `CC(C)(C)c1ccc(NC(=O)c2c[nH]c3ccccc3c2=O)cc1CN` [Compound 390, N-[3-(Aminomethyl)-4-tert-butyl-phenyl]-4-oxo-1H-quinoline-3-carboxamide], `Cc1cc2ccc(NC(=O)c3c[nH]c4ccccc4c3=O)cc2[nH]1` [Compound 104, N-(2-methyl-1H-indol-6-yl)-4-oxo-1H-quinoline-3-carboxamide] is higher in Emax: < 25% for the first, 25 to 100% for the second.

First: O=C(Nc1ccc(C(F)(F)F)nc1)c1c[nH]c2ccccc2c1=O [Compound 197, 4-oxo-N-[6-(trifluoromethyl)-3-pyridyl]-1H-quinoline-3-carboxamide]
Second: COCCOC(=O)NCC(C)(C)c1ccc(NC(=O)c2c[nH]c3ccccc3c2=O)cc1 [Compound 28, [2-methyl-2-[4-[(4-oxo-1H-quinolin-3-yl)carbonylamino]phenyl]-propyl]aminoformic acid 2-methoxyethyl ester]
The Emax of the first is lower: < 25% for the first, 25 to 100% for the second.

`CC(C)(C)c1cc2cc[nH]c2cc1NC(=O)c1c[nH]c2ccc(S(=O)(=O)N3CCCC3)cc2c1=O` [Compound 274, 4-oxo-6-pyrrolidin-1-ylsulfonyl-N-(5-tert-butyl-1H-indol-6-yl)-1H-quinoline-3-carboxamide] and `CC(C)n1cc(C(=O)Nc2ccccc2C(C)(C)C)c(=O)c2ccccc21` [Compound 473, 1-isopropyl-4-oxo-N-(2-tert-butylphenyl)-1H-quinoline-3-carboxamide] fall in the same range of Emax: 25 to 100% for the first, 25 to 100% for the second.
